Test systems include ACHN renal; CAKI-1 renal; DU-145 prostate; HS 578T breast; KM12 colon; OVCAR-3 ovarian; SF-268 CNS; SF-539 CNS; SK-OV-3 ovarian; UO-31 renal.
Experiment in all cases: NCI-60 cell line screen, 48 h

“And” between values parts separate entries of the source, which are not always exact repeats. Equal values may be shown once.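 Grown in 96-well plates, cells were treated for 48 hours with each compound at five concentrations. Insufficient inhibition: endpoint recorded as highest concentration tested. The concentration for 50% growth inhibition is given as GI50. Definition used: TGI = concentration required for complete inhibition of growth.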 Bounds are passed on as bounds.

Consider `O=C(Nc1ccc(-c2nc3cc4ccccc4cc3[nH]2)cc1)c1cccc(Br)c1`, for which the GI50 with ACHN renal is 12.3 µM; with CAKI-1 renal, 27.5 µM; in the assay on DU-145 prostate it was 3.03 µM; in the assay with HS 578T breast, 14.3 µM; in the assay with KM12 colon, 7.24 µM; with OVCAR-3 ovarian, 3.64 µM. Also, the GI50 is 9.22 µM in the assay with SF-268 CNS, 12.9 µM in the assay on SF-539 CNS, 16.3 µM in the assay on SK-OV-3 ovarian and 17.6 µM in the assay with UO-31 renal. The TGI in the assay on ACHN renal was 31 µM; with CAKI-1 renal it was 74.8 µM; in the assay with DU-145 prostate, 19.1 µM; in the assay with HS 578T breast it was 46.2 µM; with KM12 colon, 32.4 µM; in the assay with OVCAR-3 ovarian, 10.3 µM. Moreover, the TGI in the assay on SF-268 CNS came out at 26.8 µM; in the assay with SF-539 CNS, 26.7 µM; in the assay with SK-OV-3 ovarian, 32.8 µM; in the assay with UO-31 renal it was 36.1 µM.
Turning to `Oc1ccc2ccccc2c1C=NCCCN=Cc1c(O)ccc2ccccc12`, the GI50 in the assay with ACHN renal is 5.73 µM; with CAKI-1 renal it was 15.7 µM; in the assay with DU-145 prostate, 35.3 µM; in the assay with HS 578T breast, 8.05 µM; in the assay on KM12 colon, 15.1 µM; in the assay with OVCAR-3 ovarian, 3.31 µM. Moreover, the GI50 with SF-268 CNS was 16.3 µM; with SF-539 CNS it was 17.8 µM; in the assay with SK-OV-3 ovarian, 24.8 µM; with UO-31 renal, 8.4 µM. Also, the TGI in the assay with ACHN renal was 34.9 µM; in the assay on CAKI-1 renal, 49.5 µM; in the assay with DU-145 prostate it was more than 100 µM; in the assay with HS 578T breast, 36.7 µM; with KM12 colon it was 36.2 µM; in the assay on OVCAR-3 ovarian, 14.8 µM. The TGI in the assay with SF-268 CNS was more than 100 µM; with SF-539 CNS it was 40.8 µM; in the assay on SK-OV-3 ovarian, 67.5 µM; in the assay with UO-31 renal, 52.4 µM.
In the case of `CCNC(=O)C[C@@H]1N=C(c2ccc(Cl)cc2)c2cc(OC)ccc2-n2c(C)nnc21`, the GI50 with ACHN renal is 7.4 µM; with CAKI-1 renal it was 0.584 µM; in the assay with DU-145 prostate, more than 100 µM; in the assay on HS 578T breast, 0.796 µM; in the assay on KM12 colon it was 27.1 µM; in the assay with OVCAR-3 ovarian, 6.29 µM. For the same compound, the GI50 with SF-268 CNS was more than 53.6 µM; in the assay with SF-539 CNS, 2.33 µM; in the assay on SK-OV-3 ovarian, 2.37 µM; with UO-31 renal, 0.659 µM. For the same compound, the TGI is more than 100 µM in the assay on ACHN renal; more than 100 µM in the assay with CAKI-1 renal; more than 100 µM in the assay on DU-145 prostate; more than 41.5 µM in the assay with HS 578T breast; more than 100 µM in the assay on KM12 colon; more than 100 µM in the assay with OVCAR-3 ovarian. Also, the TGI with SF-268 CNS, in the assay with SF-539 CNS, in the assay with SK-OV-3 ovarian and with UO-31 renal was more than 100 µM in each case.
Regarding `CN(C)CCCCN1CCc2c(n(C)c3ccccc23)C1=O`, the TGI in the assay with ACHN renal was more than 100 µM; with CAKI-1 renal, > 73.4 µM and 65.3 µM; in the assay with DU-145 prostate it was more than 100 µM; with HS 578T breast, more than 89.4 µM; in the assay on KM12 colon, more than 92.7 µM; in the assay with OVCAR-3 ovarian, more than 100 µM. Besides, the TGI with SF-268 CNS was > 76.3 µM and 57.6 µM; in the assay on SF-539 CNS, 68.9 µM and 44 µM; with SK-OV-3 ovarian, more than 95 µM; with UO-31 renal, > 76.3 µM and 46.7 µM. Further, the GI50 with SF-539 CNS is 50.5 µM and 21.7 µM.
For the compound `Cc1ccc(Nc2nc(NCCO)c3ccccc3n2)cc1C`, the GI50 in the assay on ACHN renal is 11 µM; in the assay on CAKI-1 renal it was 4.66 µM; in the assay with DU-145 prostate it was 10.3 µM; with HS 578T breast, 12.4 µM; in the assay with KM12 colon it was 8.06 µM; in the assay with OVCAR-3 ovarian, 11 µM. The GI50 is 9.27 µM in the assay with SF-268 CNS, 5.87 µM in the assay on SF-539 CNS, 14.2 µM with SK-OV-3 ovarian and 5.01 µM with UO-31 renal. Further, the TGI in the assay with ACHN renal stood at 23.9 µM; in the assay with CAKI-1 renal, 17.8 µM; in the assay on DU-145 prostate, 22 µM; with HS 578T breast, 33.8 µM; in the assay with KM12 colon it was 20.5 µM; with OVCAR-3 ovarian, 23 µM. Besides, the TGI in the assay on SF-268 CNS came to 22.2 µM; in the assay with SF-539 CNS it was 19.7 µM; in the assay on SK-OV-3 ovarian, 27.6 µM; with UO-31 renal, 19 µM.
As to `Cn1c(C(N)=O)cc2c1-c1nc(Nc3ccccc3)ncc1CCC2`, the GI50 was 3.61 µM in the assay with ACHN renal; 2.11 µM in the assay on CAKI-1 renal; 6.18 µM in the assay on DU-145 prostate; 1.97 µM in the assay with HS 578T breast; 1.48 µM in the assay on KM12 colon; 10.1 µM with OVCAR-3 ovarian. The GI50 is 5.52 µM with SF-268 CNS, 3.93 µM in the assay on SF-539 CNS, 3.51 µM in the assay with SK-OV-3 ovarian and 1.92 µM in the assay on UO-31 renal. Besides, the TGI with ACHN renal came to 50.5 µM; in the assay with CAKI-1 renal it was 15.9 µM; in the assay with DU-145 prostate, 62.7 µM; in the assay with HS 578T breast it was 6.9 µM; with KM12 colon, 18.3 µM; with OVCAR-3 ovarian it was 57.1 µM. In addition, the TGI in the assay on SF-268 CNS is more than 100 µM; in the assay with SF-539 CNS it was 28 µM; in the assay on SK-OV-3 ovarian, 20.8 µM; in the assay on UO-31 renal, 14.3 µM.
As for `C=C1C(=O)O[C@H]2[C@H]1CC/C(COC(=O)C(=O)c1c[nH]c3ccccc13)=C\CC[C@@]1(C)O[C@@H]21`, the GI50 in the assay on ACHN renal is 2.13 µM; in the assay on CAKI-1 renal it was 2.97 µM; with DU-145 prostate it was 3.12 µM; with HS 578T breast, 4.89 µM; in the assay with KM12 colon, 3.28 µM; with OVCAR-3 ovarian, 1.86 µM. For the same compound, the GI50 was 2.39 µM in the assay with SF-268 CNS, 1.75 µM with SF-539 CNS, 11.9 µM in the assay with SK-OV-3 ovarian and 1.84 µM with UO-31 renal. Further, the TGI in the assay with ACHN renal is 6.1 µM; with CAKI-1 renal it was 13.5 µM; in the assay with DU-145 prostate it was 11.8 µM; with HS 578T breast, more than 100 µM; in the assay on KM12 colon, 13.4 µM; with OVCAR-3 ovarian, 4.63 µM. The TGI in the assay with SF-268 CNS is 7.68 µM; with SF-539 CNS, 3.76 µM; in the assay with SK-OV-3 ovarian it was 24.6 µM; in the assay on UO-31 renal, 3.58 µM.
Consider `Cc1ccc(NC(c2ccccc2)c2ccc3cccnc3c2O)cc1` (stereo unspecified), for which the TGI worked out at 15.5 µM in the assay on ACHN renal; 16.4 µM with CAKI-1 renal; 23.4 µM in the assay on DU-145 prostate; 61.3 µM in the assay on HS 578T breast; 19.1 µM in the assay on KM12 colon; 7.58 µM in the assay with OVCAR-3 ovarian. The TGI with SF-268 CNS was 13.6 µM; in the assay on SF-539 CNS, 8.18 µM; in the assay on SK-OV-3 ovarian it was 23.8 µM; in the assay on UO-31 renal, 16 µM.
